Results taken from US6359141B2, “Water soluble prodrugs of azole compounds” (Bristol-Myers Squibb Company, priority 1998, dated 2002).

Assays:
[1] = Solubility
[2] = Release of parent in human plasma; format: in vitro ADME; conditions: prodrug conversion to bioactive parent
[3] = physchem

Structure (SMILES)	solubility [1] [µg/mL]	Release of Parent in Human Plasma [2]	solubility [3] [µg/mL]
CCN(CC)Cc1ccc(C(=O)OCO[C@@](Cn2cncn2)(c2ccc(F)cc2F)[C@@H](C)c2nc(-c3ccc(C#N)cc3)cs2)cc1 [Example 1, (2R,3R)-3-[4-(4-cyanophenyl)thiazol-2-yl]-2-(2,4-difluorophenyl)-1-(1H-1,2,4-triazol-1-yl)-2-[[p-(N,N-diethylaminomethyl)benzoyloxy]methoxy]butane]	> 1000	Yes	–
C[C@@H](c1nc(-c2ccc(C#N)cc2)cs1)C(Cn1cncn1)(OP(=O)([O-])[O-])c1ccc(F)cc1F.[Na+].[Na+] (some centres unmarked) [Example 7 of WO 97/28169]	> 1000	No	–
C[C@@H](c1nc(-c2ccc(C#N)cc2)cs1)[C@](O)(Cn1cncn1)c1ccc(F)cc1F [Parent, (2R,3R)-3-[4-(4-cyanophenyl)thiazol-2-yl]-2-(2,4-difluorophenyl)-1-(1H-1,2,4-triazol-1-yl)-butan-2-ol]	–	–	< 6
